From the supplement of paper PMC11451515

Legend:
Assay in all cases: AUC of viability dose-response curve (% viability x log10 dose units); higher = less sensitive
Settings in all cases: 48 h
NOMO1 = system: NOMO1
Procedure, shortened: (§1)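 Over 48 h at 37°C, leukemia cells in 1536-well plates (500 or 1000 cells/well), adapted to each medium, received library compounds in DMSO at 11 threefold doses from 47 μM to 0.79 nM. CellTiter-Glo One luminescence, normalised per plate to DMSO and cell-free wells, was fitted by a four-parameter log-logistic function of log10 dose. The area under the curve was then integrated by trapezoidal rule, after scaling curves above full viability and removing those that failed quality control.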

SEM cells = system: SEM cells
Procedure, shortened: as §1

P12-Ichikawa = system: P12-Ichikawa
Procedure, shortened: as §1

[1] = RPMI 5 mM glucose + 10% dialyzed FBS

| SMILES | AUC of viability dose-response curve (NOMO1; HPLM + 10% dialyzed FBS) | AUC of viability dose-response curve (NOMO1; RPMI 5 mM glucose + 10% FBS) | AUC of viability dose-response curve (NOMO1; [1]) | AUC of viability dose-response curve (SEM cells; HPLM + 10% dialyzed FBS) | AUC of viability dose-response curve (SEM cells; RPMI 5 mM glucose + 10% FBS) | AUC of viability dose-response curve (SEM cells; [1]) | AUC of viability dose-response curve (P12-Ichikawa; HPLM + 10% dialyzed FBS) | AUC of viability dose-response curve (P12-Ichikawa; RPMI 5 mM glucose + 10% FBS) | AUC of viability dose-response curve (P12-Ichikawa; [1]) |
| --- | --- | --- | --- | --- | --- | --- | --- | --- | --- |
| c1ccc(CNc2nc(N3CCOc4ccccc43)nc3c2CCCC3)cc1 | 468 | 473 | 470 | 455 | 428 | 451 | 461 | 476 | 472 |
| CC(O)(C#Cc1ccc2c(c1)N(c1nc(N)ncc1Cl)CC2)c1nccs1 (centres undefined) | 455 | 467 | 468 | 469 | 430 | 465 | 477 | 468 | 464 |
| NC(=O)C1CCCc2c1[nH]c1ccc(Cl)cc21 (centres undefined) | 370 | 401 | 404 | 343 | 381 | 365 | 417 | 436 | 421 |
| Cc1cnc(C(=O)O)c[n+]1[O-] | 400 | 454 | 447 | 450 | 416 | 475 | 460 | 468 | 441 |
| C=CCc1cccc(/C=N/NC(=O)CN2CCN(Cc3ccccc3)CC2)c1O | 419 | 448 | 433 | 399 | 411 | 378 | 420 | 424 | 417 |
| Nc1cccc2c1CN([C@H]1CCC(=O)NC1=O)C2=O | 462 | 428 | 466 | 427 | 390 | 450 | 451 | 448 | 449 |
| CCN(CC)CCCCNc1ncc2c(n1)N(C)C(=O)N(c1c(Cl)c(OC)cc(OC)c1Cl)C2 | 429 | 453 | 451 | 423 | 421 | 422 | 450 | 446 | 448 |
| CO/C1=C/C(C)=C\[C@@H](C)[C@@H](O)[C@@H](C)C/C(C)=C\C=C/[C@H](OC)[C@@H]([C@@H](C)[C@@H](O)[C@H](C)[C@@]2(O)C[C@@H](O)[C@H](C)[C@@H](C(C)C)O2)OC1=O | 208 | 229 | 218 | 213 | 211 | 206 | 291 | 263 | 225 |
| N#Cc1ccnc(Nc2cc(C3CCN(C4COC4)CC3)cc(N3CCC(F)(F)C3)n2)c1 | 430 | 429 | 426 | 424 | 415 | 408 | 455 | 441 | 439 |
| CC(/C=C/C(=O)NO)=C\[C@@H](C)C(=O)c1ccc(N(C)C)cc1 | 337 | 339 | 336 | 290 | 295 | 292 | 325 | 315 | 316 |
| CN1c2ccccc2C(=O)N2CCc3c([nH]c4ccccc34)C21 (centres undefined) | 445 | 466 | 434 | 453 | 438 | 459 | 470 | 454 | 451 |
| CN(C)CCOc1ccc(-c2nc(-c3ccncc3)c(-c3ccc4c(c3)CC/C4=N\O)[nH]2)cc1 | 450 | 465 | 437 | 458 | 455 | 466 | 456 | 454 | 452 |
| CN1C(=O)C[C@H](C(=O)N[C@@H](Cc2cnc[nH]2)C(=O)N2CCC[C@H]2C(N)=O)NC1=O | 462 | 463 | 435 | 456 | 435 | 459 | 462 | 464 | 470 |
| Cc1cc(Nc2cc(CN3CCOCC3)c3nc(C)c(Cc4ccc(Cl)cc4F)n3n2)[nH]n1 | 429 | 424 | 422 | 342 | 317 | 310 | 436 | 428 | 439 |
| CCOC(=O)c1cncn1[C@H](C)c1ccccc1 | 443 | 477 | 442 | 438 | 468 | 435 | 463 | 452 | 466 |
| COC1=C2C[C@@H](C)C[C@H](OC)[C@H](O)[C@@H](C)/C=C(\C)[C@H](OC(N)=O)[C@@H](OC)/C=C/C=C(\C)C(=O)NC(=CC1=O)C2=O | 430 | 438 | 440 | 402 | 396 | 395 | 416 | 410 | 399 |

| SMILES | AUC of viability dose-response curve (NOMO1; HPLM + 10% dialyzed FBS) | AUC of viability dose-response curve (NOMO1; RPMI 5 mM glucose + 10% FBS) | AUC of viability dose-response curve (NOMO1; [1]) | AUC of viability dose-response curve (SEM cells; HPLM + 10% dialyzed FBS) | AUC of viability dose-response curve (SEM cells; RPMI 5 mM glucose + 10% FBS) | AUC of viability dose-response curve (SEM cells; [1]) | AUC of viability dose-response curve (P12-Ichikawa; HPLM + 10% dialyzed FBS) | AUC of viability dose-response curve (P12-Ichikawa; RPMI 5 mM glucose + 10% FBS) | AUC of viability dose-response curve (P12-Ichikawa; [1]) |
| --- | --- | --- | --- | --- | --- | --- | --- | --- | --- |
| Cc1cc(C(=O)N2CCN(c3cccc(Cl)c3)CC2)n(-c2ccccc2)n1 | 364 | 389 | 375 | 354 | 368 | 357 | 349 | 373 | 374 |
| C[S+](=O)([O-])c1cccc(CNc2nc(Nc3ccc4c(c3)CCC(=O)N4)ncc2C(F)(F)F)c1 | 436 | 446 | 454 | 331 | 367 | 355 | 450 | 444 | 451 |
| O=C(Nc1ncc(SCCN2CCCC2)s1)[C@]1(c2ccc([S+](=O)([O-])C3CC3)cc2)C[C@H]1C1CCCCC1 | 428 | 451 | 446 | 390 | 461 | 420 | 455 | 459 | 445 |
| COc1ccc2c(c1)c(CC(=O)OCC(=O)O)c(C)n2C(=O)c1ccc(Cl)cc1 | 468 | 439 | 463 | 470 | 432 | 454 | 458 | 436 | 450 |
| CN(C)CCN(C)C(=O)c1ccc(NC(=O)Nc2ccc(-c3nc(N4CCOCC4)c4ccn(CC(F)(F)F)c4n3)cc2)cc1 | 327 | 393 | 371 | 339 | 325 | 341 | 417 | 359 | 360 |
| NC(=O)c1cccc2nc(-c3ccc([C@H]4CCCN4)cc3F)[nH]c12 | 464 | 472 | 466 | 398 | 363 | 362 | 463 | 466 | 465 |
| CC(C)c1cnn2c(NCc3ccccc3)cc(NCCCCCCN)nc12 | 464 | 470 | 463 | 465 | 416 | 471 | 464 | 442 | 439 |
| O=C(Nc1ncc(-c2cc(C(F)F)nn2-c2c(Cl)cccc2Cl)s1)C1CC1 | 398 | 381 | 370 | 347 | 333 | 340 | 329 | 326 | 345 |
| Cn1cc(/C=C2\C(=O)Nc3cccnc32)c2ccccc21 | 464 | 451 | 449 | 430 | 421 | 415 | 414 | 442 | 437 |
| Cc1[nH]c(/C=C2\C(=O)Nc3ccccc32)c(C)c1CCC(=O)O | 433 | 434 | 457 | 245 | 288 | 236 | 406 | 408 | 419 |
| Cc1cc(Nc2nc(N[C@@H](C)c3ccc(F)cc3)c(C#N)cc2F)n[nH]1 | 414 | 362 | 394 | 367 | 368 | 364 | 396 | 399 | 393 |
| C[C@]12CC[C@@H]3c4ccc(O)cc4CC[C@H]3[C@@H]1C[C@@H](O)[C@@H]2O | 436 | 463 | 447 | 468 | 419 | 454 | 466 | 468 | 466 |
| Oc1cccc(-c2nc(N3CCOCC3)c3oc4ncccc4c3n2)c1 | 464 | 466 | 459 | 337 | 302 | 312 | 449 | 401 | 430 |
| CC[C@H](C)C(=O)O[C@H]1C[C@H](O)\C=C2\C=C/[C@H](C)[C@H](CC[C@@H](O)C[C@@H](O)CC(O)=O)[C@@H]12 | 441 | 457 | 462 | 458 | 464 | 470 | 447 | 460 | 464 |
| CC1=C(CC(=O)O)c2cc(F)ccc2/C1=C\c1ccc([S+](C)[O-])cc1 (centres undefined) | 448 | 453 | 445 | 450 | 422 | 430 | 458 | 451 | 449 |
